Measurements: PubChem BioAssay AID1996
Values after ≈ are worked out from the molar mass of the structure shown.

settings: buffer; pH 7.4; 200.0 µM

Structure (SMILES) | solubility kinetic [µg/mL]
O=C(O)Cc1ccc2oc(-c3ccccn3)nc2c1 | > 38.1
COc1ccc(-c2nc(-c3ccncc3)no2)c(OC)c1 | 6 (≈ 21.2 µM)
Cc1ccc(NS(=O)(=O)c2ccc3c(c2)oc(=O)n3C)cc1 | 1.6 (≈ 5.03 µM)
O=C(Nc1nc2cc3c(cc2s1)OCCO3)c1ccco1 | 4.8 (≈ 15.9 µM)
CC(CN1CCCC1)OC(=O)c1ccccc1Cl.Cl (stereo not given) | > 45.6
Cc1cccc(NCc2ccc([N+](=O)[O-])s2)c1 | 15.1 (≈ 60.8 µM)
COc1ccc(NS(=O)(=O)c2ccc(C(=O)NCC3(N4CCOCC4)CCCCC3)cc2)cc1 | 13.8 (≈ 28.3 µM)
Brc1cc(-c2ccccc2)nc(-c2ccccc2)n1 | < 0.3
Cc1ccc2nc(-c3cc(-c4ccccc4)no3)cn2c1 | 0.3 (≈ 1.09 µM)
Cc1ccc(S(=O)(=O)N(C)CC(=O)OCC(=O)c2ccc3c(c2)NC(=O)CO3)cc1 | 25 (≈ 57.8 µM)
CN(Cc1ccccc1)C(=O)c1ccco1 | 30.3 (≈ 141 µM)
O=C(COc1ccc(Cl)cc1)NCc1ccc(F)cc1 | 41.5 (≈ 141 µM)
CCOc1ccc(S(=O)(=O)N(C)c2ccc(OCC(=O)NCC3CCCCC3)cc2)cc1 | 3.1 (≈ 6.73 µM)
Cc1cc(C)c2ccc(Cl)cc2n1 | 1.5 (≈ 7.83 µM)
COc1ccc(-c2csc(NC(=O)CN3C(=O)C4CC=CCC4C3=O)n2)cc1OC (stereo not given) | 16 (≈ 37.4 µM)
COc1ccccc1C(=O)NC1CCSc2ccccc21 (stereo not given) | 31.5 (≈ 105 µM)
Cc1ccc(NC(=O)CN(C)C(=S)NC2CC2)cc1 | > 41.6
Cc1cccc(OCCCCN2CCNCC2)c1 | 21.3 (≈ 85.8 µM)
Cc1c(C=O)c2ccccn2c1C(=O)c1ccccc1Cl | < 0.6
CNS(=O)(=O)c1cccc(C(=O)OCC(=O)N2CCCC2)c1 | 45.2 (≈ 138 µM)
Cc1ccc(C(=O)Nc2ccc3c(c2)OCCO3)c(Cl)c1 | 4.3 (≈ 14.2 µM)
O=C(O)c1ccccc1C(=O)Nc1ccc(Oc2ccccc2)cc1 | > 50
CC1(C)N([O-])C2=C(CCCC2)[N+]1=O | > 27.3
Cc1cc(=O)[nH]c(SCC(=O)NC(C)C2CC3CCC2C3)c1C#N (stereo not given) | > 51.8

Structure (SMILES) | solubility kinetic [µg/mL]
CC(=O)C1=C(O)C(=O)N(c2ccccn2)C1c1ccc(C)cc1 (stereo not given) | > 46.3
CC(C)CN(C(=O)CSc1nc2ccccc2c(=O)[nH]1)c1c(N)n(CC(C)C)c(=O)[nH]c1=O | 10.5 (≈ 22.2 µM)
COc1cccc(NC(=O)c2ccc3nc(C)sc3c2)c1 | 38.7 (≈ 130 µM)
Cc1cccc(C(=O)NCC(=O)N2CCN(c3ccccn3)CC2)c1 | > 50.8
O=C(NCCc1ccc(Cl)cc1)c1ccc2ccccc2n1 | 5.9 (≈ 19 µM)
Cc1nnc(SCC(=O)NC2CC2)n1-c1ccccc1 | > 43.3
COC(=O)c1ccc(NC(=O)C(=O)c2c[nH]c3ccccc23)cc1 | < 0.3
CN1CCc2c(OCC(=O)N3CCCc4ccccc43)cccc2C1=O | > 52.6
O=S(=O)(c1ccc(F)cc1)N1CCN(CCOc2ccccc2)CC1 | 41.1 (≈ 113 µM)
NC(=O)CC(CC(=O)OCc1ccccc1)c1ccccc1 (stereo not given) | 38 (≈ 128 µM)
O=C(COc1ccc(F)cc1)NCCNC(=O)COc1ccc(F)cc1 | 11.2 (≈ 30.7 µM)
COc1ccc(NC(=S)NCc2ccc(F)cc2)cc1 | > 43.6
CNC(=O)c1cc(OCC(F)(F)F)ccc1OCC(F)(F)F | 49.6 (≈ 150 µM)
CC(NC(=O)CCC(=O)NC(C)c1ccccc1)c1ccccc1 (stereo not given) | 46.2 (≈ 142 µM)
O=C(N/C(=C/c1cccnc1)C(=O)N1CCOCC1)c1ccccc1Cl | > 55.8
CC(C)N(C)CCOC(=O)C1COc2ccccc2O1.Cl (stereo not given) | > 47.4
CN(C)C(CNC(=O)CCOc1ccccc1)c1ccco1 (stereo not given) | 43 (≈ 142 µM)
O=C1CN=C(c2ccc(Cl)cc2)c2oc3ccccc3c2N1 | < 0.3
Cc1c(Cc2ccccc2)sc(NC(=O)C(C)(C)C)c1C(N)=O | 17.7 (≈ 53.6 µM)
O=C(COC(=O)Cn1cnc2ccccc21)Nc1ccccc1C(F)(F)F | > 56.6
Nc1c(Cl)cnc(C(Cl)(Cl)Cl)c1Cl | 19.6 (≈ 69.9 µM)
COC(=O)/C=C1\SC(=NC(=O)c2ccc(C)cc2)NC1=O | 44.5 (≈ 146 µM)
COc1ccc(S(=O)(=O)N(C)CC(=O)N2CCCCCC2)cc1 | > 51.1
COc1cccc(OC)c1C(=O)OCC(=O)N1CCC(Cc2ccccc2)CC1 | 5.2 (≈ 13.1 µM)

Structure (SMILES) | solubility kinetic [µg/mL]
Cc1ccc(NC(=O)Cc2nc(COC(=O)c3c(F)cccc3Cl)cs2)cc1 | 7.5 (≈ 17.9 µM)
O=C(COc1ccccc1Cl)NCCNC(=O)c1ccncc1 | > 50.1
Cc1ccc(NS(=O)(=O)c2cccc(C(=O)N3CCCCC3)c2)cc1 | > 53.8
CCc1nc(N2CCN(C(C)=O)CC2)c(C#N)c2c1COC(C)(C)C2 | > 51.4
CCNc1nc(N)c(C(=O)C23CC4CC(CC(C4)C2)C3)s1 | 2 (≈ 6.55 µM)
CCNC(=S)Nc1ccc(N2CCCCC2)cc1 | > 39.5
CC(C)(C)c1ccc(OCCCN2CCCC2)cc1 | 28.6 (≈ 109 µM)
O=C(NCc1cccnc1)NC1CC(=O)N(c2ccc3c(c2)OCCO3)C1 (stereo not given) | > 55.3
O=C(NCCCN1CCCC1=O)Nc1ccccc1F | > 41.9
CC1(c2ccccc2)CC(C)(C)N2C(=O)Cc3cccc1c32 (stereo not given) | 6 (≈ 20.6 µM)
Cc1cccc(C(=O)Nc2ccc(C(=O)c3ccccc3)cc2)c1 | < 0.7
Cc1cccc(NC(=S)NC2CCCC2)c1C | 34.1 (≈ 137 µM)
COc1ccc(NC(=O)c2cccnn2)cc1 | > 34.4
CC1=Nc2cc([N+](=O)[O-])ccc2NC(C)(C)C1 | 17 (≈ 72.9 µM)
CC(C)c1ccc(NC(=O)Cc2c(C(=O)O)n(C)c3ccccc23)cc1 | > 52.6
Cc1cc2ccccc2cc1CN1CCCCC1 | 9.6 (≈ 40.1 µM)
Cc1ccc(NC(=O)C(C)Sc2nnc3ccccn23)cc1 (stereo not given) | > 46.9
CC1CN(C(=S)NC(=O)c2ccccc2)CC(C)O1 (stereo not given) | > 41.8
O/N=C/c1cc(Br)cs1 | 16.9 (≈ 82 µM)
Cc1ccc(F)cc1S(=O)(=O)NCc1ccc(N2CCN(C)CC2)cc1 | 16 (≈ 42.4 µM)
CC(C)[C@H](NC(=O)NC1CCN(Cc2ccccc2)CC1)C(=O)O | 19.8 (≈ 59.4 µM)
CC(=O)OC1CCC2(/C=N/O)C(=CCC3C4CCC(=O)C4(C)CCC32)C1 (stereo not given) | > 53.9
CC(C#N)Sc1ncnc2sc(-c3ccccc3)cc12 (stereo not given) | 0.8 (≈ 2.69 µM)
CC1CCCN(CC(=O)N2c3ccccc3Sc3ccccc32)C1 (stereo not given) | 31.7 (≈ 93.7 µM)

Structure (SMILES) | solubility kinetic [µg/mL]
CCOC(=O)C(=CNc1cc(C)ccc1-n1cccc1)C(=O)OCC | 0.7 (≈ 2.04 µM)
S=C(NCCc1ccccc1)Nc1cnc2ccccc2c1 | 3.6 (≈ 11.7 µM)
Cc1ccc(C(=O)Nc2ccncc2)c(Cl)c1 | > 37
O=C(/C=C/c1cccnc1)c1ccc(F)c(F)c1 | 27.8 (≈ 113 µM)
COC(=O)c1sccc1NC(=O)Nc1ccc(OC)cc1OC | 15.4 (≈ 45.8 µM)
COc1cc(/C=C/C(=O)OCC(=O)Nc2cccc(F)c2)ccc1O | 24.6 (≈ 71.2 µM)
CCOc1ccccc1N1C(=O)CC(=O)NC1=O | > 37.2
O=C(O)C(=O)O.c1ccc2c(CCNC3CCCCC3)c[nH]c2c1 | > 49.9
O=C(NC1CCCCC1)c1ccc(-c2ccccc2[N+](=O)[O-])o1 | 2.9 (≈ 9.23 µM)
CC(C)(C)C(=O)COc1ccccc1[N+](=O)[O-] | > 35.6
CCOC(=O)N1CCC(NC(=O)c2ccccc2C(=O)O)CC1 | > 48.1
O=C(O)CSc1nccc2ccccc12 | > 32.9
Cc1cc(C)n2nc(SCC(=O)N3CCN(c4ccccc4)CC3)nc2n1 | > 57.4
CCc1ccc(N2CCN(CCNC(=O)Nc3ccccc3)CC2)cc1 | 1.3 (≈ 3.69 µM)
Cc1ccc(C(=O)OCC(=O)NCc2ccc3c(c2)OCO3)o1 | > 47.6
Clc1ccccc1OCCCOc1cccc2cccnc12 | 3.9 (≈ 12.4 µM)
CN(C)C(=O)C#Cc1ccccc1 | > 26
Cc1cccc(CC(=O)N2CCCC2)c1 | 28.7 (≈ 141 µM)
c1cnc(N2CCN(Cc3ccc4c(c3)OCO4)CC2)cn1 | 44.5 (≈ 149 µM)
Cc1cccc(N2C(=O)/C(=C/N3CCN(C(=O)c4ccco4)CC3)C(=O)NC2=S)c1 | 2.6 (≈ 6.13 µM)
O=C(Nc1cccc2ccccc12)N1CCN(c2ncccn2)CC1 | > 50
O=C(Nc1ccccc1F)NC1CCCc2ccccc21 (stereo not given) | 2 (≈ 7.03 µM)
Cc1cccc(Oc2ccc(NC(=O)c3ccccc3C(=O)O)cc2)c1 | > 52.1
Cc1nccc(-c2ccc(-n3c(C)ccc3C)cc2)n1 | 33 (≈ 125 µM)

Structure (SMILES) | solubility kinetic [µg/mL]
CCOC(=O)c1c(C)n(C)c2c1cc(OC(C)=O)c1ccccc12 | < 0.7
COC(=O)C1CC(=O)N(Cc2ccccc2)C1 (stereo not given) | > 35
CC(C)CNC(=O)CO/N=C/c1ccccc1Cl | > 40.3
CCn1c(Cc2ccc(OC)cc2)nc2ccccc21 | > 40
CCNc1ccc(S(=O)(=O)N(C)C)cc1[N+](=O)[O-] | 23.1 (≈ 84.5 µM)
Cc1nnc(NC(=O)CS(=O)(=O)Cc2ccccc2)s1 | > 46.7
COc1cc(CCC(=O)N2CC(C)OC(C)C2)cc(OC)c1OC (stereo not given) | > 50.6
C/C(=N/OC(=O)c1cccc(C(F)(F)F)c1)c1cnccn1 | 3.5 (≈ 11.3 µM)
CN1C(=O)C2(OCCCO2)c2cc(Cl)ccc21 | > 38.1
CC1C(=O)N2CCCc3cc(NS(=O)(=O)c4ccc(F)cc4)cc1c32 (stereo not given) | > 54.1
CCOC(=O)Cc1csc(NC(=O)CSc2nccn2C)n1 | > 51.1
CC(C)OCCCNC(=O)Nc1cccc2ccccc12 | > 43
COC(=O)[C@H](Cc1ccccc1)NC(=O)c1ccc2ccccc2n1 | 23.6 (≈ 70.6 µM)
O=C1CC(N2CCc3ccccc32)C(=O)N1c1ccccc1 (stereo not given) | 37.3 (≈ 128 µM)
COc1ccc(NC(=O)c2cccnc2N2CCOCC2)cc1 | > 47
CC1CCN(CC(=O)Nc2nc(-c3ccccc3)cs2)CC1 | 12.9 (≈ 40.9 µM)
CNC(=O)CCc1ccc(OC)cc1 | > 29
Cc1ccc(S(=O)(=O)N2CCN(C(=O)N3CCCC3)CC2)cc1 | 48.7 (≈ 144 µM)
Cc1cccc(OCC(=O)NCCCNC(=O)c2ccc(C)nc2)c1 | > 51.2
Cc1c(C(=O)O)cc(-c2ccccc2)n1Cc1ccccc1 | > 43.7
CCC(C)NC(=O)c1ccc2nc(Cc3ccc(OC)cc3)oc2c1 (stereo not given) | 4.7 (≈ 13.9 µM)
O=C1Nc2ccccc2C1C(C[N+](=O)[O-])c1ccccn1 (stereo not given) | > 42.5
CC(=O)c1c(C(C)=O)c(C)n(-c2cccc3cccnc23)c1C | > 46
Cc1ccnc(SCc2cn3c(C)cc(C)nc3n2)n1 | > 42.8
